This test deals with Ps CPG2 (Pseudomonas sp. RS-16, UniProt P06621). Kind of test: decrease in absorbance at […] nm, plate reader, initial rates. In kind it is biochemical. Particulars: 0.1 M Tris-HCl pH 7.3, 0.2 mM ZnSO4, 37°C, 0.03-0.42 mM MTX; apparent Km.
Sequence of Ps CPG2 (P06621 23-415): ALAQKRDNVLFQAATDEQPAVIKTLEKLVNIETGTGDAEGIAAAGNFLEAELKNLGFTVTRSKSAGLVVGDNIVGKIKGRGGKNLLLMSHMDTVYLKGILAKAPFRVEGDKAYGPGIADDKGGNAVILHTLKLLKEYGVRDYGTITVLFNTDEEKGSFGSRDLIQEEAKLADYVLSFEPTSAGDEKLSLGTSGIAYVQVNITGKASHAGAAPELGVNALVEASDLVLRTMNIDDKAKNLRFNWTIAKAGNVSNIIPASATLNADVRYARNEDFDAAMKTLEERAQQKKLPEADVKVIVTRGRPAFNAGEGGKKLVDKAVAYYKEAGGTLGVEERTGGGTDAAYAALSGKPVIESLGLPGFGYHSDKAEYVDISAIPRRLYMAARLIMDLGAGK

Broadly, the Km is the concentration of substrate that gives half-maximal velocity. Take `CN(Cc1cnc2nc(N)nc(N)c2n1)c1ccc(C(=O)N[C@@H](CCC(=O)O)C(=O)O)cc1` [methotrexate]: the Michaelis constant (Km) was found to be 172 µM.
